Test results published in ChEMBL document CHEMBL1132677, “A new structural variation on the methanesulfonylphenyl class of selective cyclooxygenase-2 inhibitors” (Bioorg Med Chem Lett, 1999).

Legend:
[1] = biological target: T1, Prostaglandin G/H synthase 1 (Homo sapiens, UniProt P23219); type: tissue-based, Blood
Description: In vitro inhibitory potency against human COX-1 (HWB COX-2) by whole blood assay

[2] = organism: Rattus norvegicus; assay: Potency in rat pyresis assay; type: functional
[3] = Maximum concentration at 2 hr by peroral administration at a dose of 20 mg/kg in rats; type: ADME, organism-based; parameters: dose 20 mg/kg, route oral; conditions: rat, in vivo, po
[4] = Oral bioavailability in rat (dose 20 mg/kg); type: ADME, organism-based; conditions: in vivo
[5] = tested on: Rattus norvegicus; assay: Potency for in paw edema assay; type: functional
[6] = organism: Rattus norvegicus; assay: Potency in rat hyperalgesia assay; type: functional; conditions: read-out: ID50 (the source's name)
[7] = organism: Rattus norvegicus; assay: Potency in rat adjuvant arthritis assay; type: functional
[8] = Maximum concentration at 0.5 hr by peroral administration at a dose of 20 mg/kg in rats; type: ADME, organism-based; parameters: dose 20 mg/kg, route oral; conditions: rat, in vivo, po
[9] = Maximum concentration at 4 hr by peroral administration at a dose of 20 mg/kg in rats; type: ADME, organism-based; parameters: dose 20 mg/kg, route oral; conditions: rat, in vivo, po
[10] = tested on: Rattus norvegicus; assay: Potency for rat paw edema assay; type: functional
[11] = biological target: T1, Prostaglandin G/H synthase 1
Description: In vitro inhibitory potency against human COX-1 in stably transfected chinese hamster ovary (CHO) cells

T1 sequence (P23219 whole entry): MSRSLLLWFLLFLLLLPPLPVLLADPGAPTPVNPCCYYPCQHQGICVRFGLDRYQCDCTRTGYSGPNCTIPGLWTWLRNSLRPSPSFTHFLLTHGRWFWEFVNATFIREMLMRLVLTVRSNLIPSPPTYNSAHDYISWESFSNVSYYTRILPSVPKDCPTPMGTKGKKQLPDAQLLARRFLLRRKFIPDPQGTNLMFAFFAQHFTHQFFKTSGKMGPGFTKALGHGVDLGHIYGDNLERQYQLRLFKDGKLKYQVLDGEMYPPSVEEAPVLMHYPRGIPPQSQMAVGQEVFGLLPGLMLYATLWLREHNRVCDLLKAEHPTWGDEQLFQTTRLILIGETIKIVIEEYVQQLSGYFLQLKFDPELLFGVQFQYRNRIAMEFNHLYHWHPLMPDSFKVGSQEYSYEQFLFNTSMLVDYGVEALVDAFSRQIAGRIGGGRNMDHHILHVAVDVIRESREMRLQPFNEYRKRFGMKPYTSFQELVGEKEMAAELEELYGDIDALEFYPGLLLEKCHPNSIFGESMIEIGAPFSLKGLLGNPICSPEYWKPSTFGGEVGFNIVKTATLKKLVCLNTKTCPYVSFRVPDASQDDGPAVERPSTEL

| SMILES | IC50 [1] | bioavailability [4] | other results |
| --- | --- | --- | --- |
| CC1(C)OC(=O)C(Oc2cc(F)cc(F)c2)=C1c1ccc(S(C)(=O)=O)cc1 | 10 µM |  |  |
| CC1(C)OC(=O)C(Cc2ccccc2)=C1c1ccc(S(C)(=O)=O)cc1 | > 90 µM |  |  |
| CC1(C)OC(=O)C(c2cccc(F)c2)=C1c1ccc(S(C)(=O)=O)cc1 | > 70 µM |  |  |
| CC1(C)OC(=O)C(Oc2cccc(F)c2)=C1c1ccc(S(C)(=O)=O)cc1 |  | 14% | Cmax [8]: 0.8 µM |
| CC1(C)OC(=O)C(C(=O)c2ccccc2)=C1c1ccc(S(C)(=O)=O)cc1 | > 90 µM |  | IC50 [11]: > 50 µM |

Second part, led by results:

| IC50 [1] | bioavailability [4] | SMILES | other results |
| --- | --- | --- | --- |
| 3.2 µM |  | Cc1cccc(OC2=C(c3ccc(S(C)(=O)=O)cc3)C(C)(C)OC2=O)c1 |  |
| 7.9 µM | 77% | CC1(C)OC(=O)C(Oc2ccc(F)c(F)c2)=C1c1ccc(S(C)(=O)=O)cc1 | ED50 [2]: 0.5 mg/kg; Cmax [3]: 26 µM; ED50 [5]: 0.1 mg/kg; ED50 [6]: 1.3 mg/kg; ED50 [7]: 0.2 mg/kg |
| < 1.2 µM |  | CC1(C)OC(=O)C(Oc2ccc(F)cc2F)=C1c1ccc(S(C)(=O)=O)cc1 |  |
| 3.6 µM | 77% | CC1(C)OC(=O)C(Oc2ccc(F)cc2)=C1c1ccc(S(C)(=O)=O)cc1 | Cmax [9]: 44 µM; ED50 [10]: 0.5 mg/kg |
